pIC50: −log10 of the molar value.
Tested on: Plasmodium berghei
Test: Luciferase/luciferin-expressing antifolate-resistant parasites were used to infect a culture of HepG2 cells that were pre-incubated with compounds. Infected hepatocytes emit light due to the luciferase reaction. Assay results are presented as the percent inhibition of light emission compared to control. […]
Type: functional
Conditions: sporozoite; for IC90: read-out: LUCIFERASE INFECTION ASSAY - IC90
[1] = read-out: LUCIFERASE INFECTION ASSAY - IC50

Row | SMILES | IC90 [µM] | pIC50 [1] | other results
1 | COc1ccc(/C=C(\C#N)C(=O)N(CCCN2C(=O)c3cccc4cccc(c34)C2=O)c2ccc(C)cc2C)cc1 | > 10 | – | pIC50 (FFLUC_HILL_SLOPE 3.25, FFLUC_R_SQUARED 0.523, read-out: LUCIFERASE INFECTION ASSAY - IC50): < 5.00
2 | Cc1cc(C(=O)N/N=C/c2ccc([N+](=O)[O-])s2)nn1-c1c(Cl)cc(Cl)cc1Cl | 4.83 | – | pIC50 (FFLUC_HILL_SLOPE 59.9, FFLUC_R_SQUARED 0.709, PBLUC_HILL_SLOPE 2.3, PBLUC_R_SQUARED 0.454, read-out: LUCIFERASE INFECTION ASSAY - IC50): 5.73
3 | O=C(/C=C/c1ccccc1[N+](=O)[O-])c1cccc(C(F)(F)F)c1 | 5.08 | 5.31 | –
4 | CCn1c2ccccc2c2cc(/C=C3\SC(=S)N(CCCN(C)C)C3=O)ccc21 | > 10 | < 5.00 | –
5 | COc1ccc(C2=NNC(=NCc3ccc4c(c3)OCO4)SC2)cc1F | > 10 | – | pIC50 (FFLUC_HILL_SLOPE 1.69, FFLUC_R_SQUARED 0.437, PBLUC_HILL_SLOPE 4.83, PBLUC_R_SQUARED 0.0332, read-out: LUCIFERASE INFECTION ASSAY - IC50): 5.06
6 | Cc1ccc(-c2nonc2NC(=O)c2sc3ccccc3c2Cl)cc1 | 6.55 | – | pIC50 (HEPG2TOX_HILL_SLOPE 10.3, HEPG2TOX_R_SQUARED 0.121, PBLUC_HILL_SLOPE 5.87, PBLUC_R_SQUARED 0.389, read-out: LUCIFERASE INFECTION ASSAY - IC50): 5.35
7 | CNc1snc(C)c1C(=O)OCCOc1ccccc1C(C)=O | 7.06 | – | pIC50 (HEPG2TOX_HILL_SLOPE 1.35, HEPG2TOX_R_SQUARED 0.846, PBLUC_HILL_SLOPE 3.65, PBLUC_R_SQUARED 0.5, read-out: LUCIFERASE INFECTION ASSAY - IC50): 5.41
8 | NC(=O)c1ccc(-c2cc(-c3cccc(F)c3)cnc2N)cc1 | 10.5 | – | pIC50 (PBLUC_HILL_SLOPE 18, PBLUC_R_SQUARED 0.175, read-out: LUCIFERASE INFECTION ASSAY - IC50): 5.03
9 | O=C(Nc1nc(CN2CCCC2)cs1)c1ccc(-c2ccccc2)cc1 | > 10 | – | pIC50 (HEPG2TOX_HILL_SLOPE 2.9, HEPG2TOX_R_SQUARED 0.919, read-out: LUCIFERASE INFECTION ASSAY - IC50): < 5.00
10 | COc1ccc(-c2ccnc3n[nH]c(-c4ccc5c(c4)OCO5)c23)cc1OC | 4.36 | – | pIC50 (HEPG2TOX_HILL_SLOPE 5.74, HEPG2TOX_R_SQUARED 0.837, PBLUC_HILL_SLOPE 9.49, PBLUC_R_SQUARED 0.381, read-out: LUCIFERASE INFECTION ASSAY - IC50): 5.46
11 | Cc1cccc(Oc2ccc(NC(=O)c3cccc(S(=O)(=O)N(C)C4CCCCC4)c3)cc2)c1 | 9.44 | – | pIC50 (FFLUC_HILL_SLOPE 23.3, FFLUC_R_SQUARED 0.81, HEPG2TOX_HILL_SLOPE 1.26, HEPG2TOX_R_SQUARED 0.904, PBLUC_HILL_SLOPE 3.5, PBLUC_R_SQUARED 0.0916, read-out: LUCIFERASE INFECTION ASSAY - IC50): 5.30
12 | Clc1cccc(CNc2nnnn2-c2ccccc2)c1 | > 10 | – | pIC50 (PBLUC_HILL_SLOPE 2.12, PBLUC_R_SQUARED 0.274, read-out: LUCIFERASE INFECTION ASSAY - IC50): 5.09
13 | COc1cc(-c2nc3ccc(NC(=O)Nc4cccc(C(C)=O)c4)cn3n2)cc(OC)c1OC | 1.53 | – | pIC50 (HEPG2TOX_HILL_SLOPE 3.38, HEPG2TOX_R_SQUARED 0.754, PBLUC_HILL_SLOPE 9.64, PBLUC_R_SQUARED 0.711, read-out: LUCIFERASE INFECTION ASSAY - IC50): 5.92
14 | COc1cc(/C=N/NC(=O)c2cc(C)n(-c3ccccc3)c2C)ccc1OCC(=O)Nc1c(C)cc(C)cc1C | 8.35 | – | pIC50 (HEPG2TOX_HILL_SLOPE 0.635, HEPG2TOX_R_SQUARED 0.731, PBLUC_HILL_SLOPE 5.43, PBLUC_R_SQUARED 0.0161, read-out: LUCIFERASE INFECTION ASSAY - IC50): 5.25
15 | O=C(/C=C/c1ccccc1)c1ccc(-n2nncc2-c2ccccc2)cc1 | > 10 | – | pIC50 (HEPG2TOX_HILL_SLOPE 6.47, HEPG2TOX_R_SQUARED 0.294, read-out: LUCIFERASE INFECTION ASSAY - IC50): < 5.00
16 | CCOC(=O)c1[nH]c2ccccc2c1-c1ccccc1 | > 12.4 | < 4.91 | –
17 | CC(C)(C)c1ccccc1NC(=O)Nc1nc(C(N)Cc2ccccc2)cs1 (stereo not given) | 7.79 | 5.34 | –
18 | CC(C)c1cccc(-c2nc3ccnc(NCc4ccc(N(C)C)cc4)c3[nH]2)c1 | > 10 | – | pIC50 (HEPG2TOX_HILL_SLOPE 6.72, HEPG2TOX_R_SQUARED 0.795, PBLUC_HILL_SLOPE 11.9, PBLUC_R_SQUARED 0.428, read-out: LUCIFERASE INFECTION ASSAY - IC50): 5.06
19 | CC(Oc1ccc(Cl)cc1Cl)C(=N)NO (stereo not given) | > 13.2 | < 4.88 | –
20 | CC(=O)c1cccc(-c2cnc3cnc(-c4ccc(CO)cc4)cn23)c1 | > 9.61 | – | pIC50 (PBLUC_HILL_SLOPE 6.05, PBLUC_R_SQUARED 0.635, read-out: LUCIFERASE INFECTION ASSAY - IC50): 5.12

Row | SMILES | IC90 [µM] | pIC50 [1] | other results
21 | COc1ccc(Cn2nc(C(=O)NC3CCCC3)c3c2CCN(Cc2ccc4c(c2)CCO4)C3)cc1 | > 6.78 | – | pIC50 (PBLUC_HILL_SLOPE 3.3, PBLUC_R_SQUARED 0.745, read-out: LUCIFERASE INFECTION ASSAY - IC50): 5.42
22 | COc1ccc(-c2csc3ncnc(NC4CCN(CC(N)=O)CC4)c23)cc1 | 8.68 | 5.29 | –
23 | Clc1ccc(-c2csc3ncnc(Sc4nnnn4C4CC4)c23)cc1 | > 10 | – | pIC50 (HEPG2TOX_HILL_SLOPE 2.99, HEPG2TOX_R_SQUARED 0.963, PBLUC_HILL_SLOPE 2.19, PBLUC_R_SQUARED 0.132, read-out: LUCIFERASE INFECTION ASSAY - IC50): 5.08
24 | Cc1c(C(=O)Nc2cccc(S(=O)(=O)N(C)C)c2)cnn1-c1ccc(=O)[nH]n1 | > 10 | < 5.00 | –
25 | CCOC(=O)C1=C(CN(C)C2CCCCC2)NC(=O)NC1 | > 10 | < 5.00 | –
26 | COc1ccc(/C=C2\c3ccccc3Cn3c2nc(=O)c2c4c(sc23)CCCC4)cc1 | 8.28 | – | pIC50 (PBLUC_HILL_SLOPE 2.2, PBLUC_R_SQUARED 0.219, read-out: LUCIFERASE INFECTION ASSAY - IC50): 5.51
27 | COc1cc(NC(=O)C(C)(C)n2cc(-c3cccnc3)cn2)cc(OC)c1 | > 10 | < 5.00 | –
28 | c1csc(-c2cnc3sc(NCC4CCOCC4)nn23)c1 | > 10.3 | < 4.99 | –
29 | Cc1[nH]c2ccccc2c1C(=O)C(C)OC(=O)c1c2c(nc3ccccc13)/C(=C/c1cccc([N+](=O)[O-])c1)CCC2 (stereo not given) | > 10 | – | pIC50 (FFLUC_HILL_SLOPE 1.81, FFLUC_R_SQUARED 0.362, PBLUC_HILL_SLOPE 3.43, PBLUC_R_SQUARED 0.216, read-out: LUCIFERASE INFECTION ASSAY - IC50): 5.21
30 | COc1ccc(CCN2C(=O)C=CC2=O)cc1OC | 5.29 | – | pIC50 (FFLUC_HILL_SLOPE 0.51, FFLUC_R_SQUARED 0.0256, HEPG2TOX_HILL_SLOPE 14.8, HEPG2TOX_R_SQUARED 0.93, PBLUC_HILL_SLOPE 12.3, PBLUC_R_SQUARED 0.48, read-out: LUCIFERASE INFECTION ASSAY - IC50): 5.35
31 | COC(=O)c1ccc(C(=O)OC)c(N(C)S(C)(=O)=O)c1 | > 11 | < 4.96 | –
32 | CCO/C=N\C1=C(C#N)C(c2ccc(F)cc2)c2ccc3ccccc3c2O1 (stereo not given) | > 8.86 | < 5.05 | –
33 | Cc1nc2sccc2c(=O)n1NC(=O)c1ccc2ccccc2n1 | > 10 | < 5.00 | –
34 | N#Cc1c(N)nc(Sc2ccc(Cl)cc2)c(C#N)c1-c1ccccc1Cl | > 8.31 | – | pIC50 (HEPG2TOX_HILL_SLOPE 9.05, HEPG2TOX_R_SQUARED 0.0303, PBLUC_HILL_SLOPE 3.41, PBLUC_R_SQUARED 0.0674, read-out: LUCIFERASE INFECTION ASSAY - IC50): 5.11
35 | CC(C)c1csc(NC(=O)c2cnn(-c3ccccc3F)c2C(F)(F)F)n1 | 2.32 | – | pIC50 (FFLUC_HILL_SLOPE 1.67, FFLUC_R_SQUARED 0.227, HEPG2TOX_HILL_SLOPE 2.85, HEPG2TOX_R_SQUARED 0.664, PBLUC_HILL_SLOPE 0.553, PBLUC_R_SQUARED 0.884, read-out: LUCIFERASE INFECTION ASSAY - IC50): 7.36
36 | O=C(c1[nH]nc2ccccc12)N1CCN(Cc2ccc(C(F)(F)F)cc2)CC1 | > 10 | – | pIC50 (HEPG2TOX_HILL_SLOPE 2.95, HEPG2TOX_R_SQUARED 0.96, PBLUC_HILL_SLOPE 4.05, PBLUC_R_SQUARED 0.587, read-out: LUCIFERASE INFECTION ASSAY - IC50): 5.18
37 | CCOc1c(Br)cnn(-c2ccc(C)cc2)c1=O | > 10.7 | – | pIC50 (HEPG2TOX_HILL_SLOPE 0.0619, HEPG2TOX_R_SQUARED 0.0842, PBLUC_HILL_SLOPE 9.69, PBLUC_R_SQUARED 0.342, read-out: LUCIFERASE INFECTION ASSAY - IC50): < 4.97
38 | Cc1cc(C(=O)Nc2ccc(OCc3ncc(C(F)(F)F)cc3Cl)cc2)no1 | 1.33 | – | pIC50 (PBLUC_HILL_SLOPE 1.94, PBLUC_R_SQUARED 0.889, read-out: LUCIFERASE INFECTION ASSAY - IC50): 6.37
39 | FC(F)(F)c1nc2ccccc2c2nnc(-c3ccc(Cl)cc3)n12 | 3.88 | – | pIC50 (HEPG2TOX_HILL_SLOPE 3.1, HEPG2TOX_R_SQUARED 0.959, PBLUC_HILL_SLOPE 22, PBLUC_R_SQUARED 0.45, read-out: LUCIFERASE INFECTION ASSAY - IC50): 5.45
40 | CCOc1ccccc1C(=O)N[C@H](C(=O)Nc1sc2c(c1C(N)=O)CCC2)C(C)C | 9.93 | – | pIC50 (HEPG2TOX_HILL_SLOPE 7.99, HEPG2TOX_R_SQUARED 0.813, PBLUC_HILL_SLOPE 17.7, PBLUC_R_SQUARED 0.214, read-out: LUCIFERASE INFECTION ASSAY - IC50): 5.06
